Data: patent US20250034184A1, “QUATERNARY PHOSPHONIUM COMPOUNDS AND USES THEREOF” (Emory University, priority 2021, published 2025)

Legend:
[1] = tested on: Pseudomonas aeruginosa (PAO1); assay: microbe, parasite or virus in culture; type: cell-based
[2] = tested on: community-acquired methicillin-resistant S. aureus (CA-MRSA; USA 300-0114); assay: microbe, parasite or virus in culture; type: cell-based
[3] = tested on: hospital-acquired methicillin-resistant S. aureus (HA-MRSA; ATCC 33591); assay: microbe, parasite or virus in culture; type: cell-based
[4] = tested on: methicillin-susceptible S. aureus (SH1000); assay: microbe, parasite or virus in culture; type: cell-based
[5] = tested on: Escherichia coli (MC4100); assay: microbe, parasite or virus in culture; type: cell-based
[6] = tested on: Enterococcus faecalis (OG1RF); assay: microbe, parasite or virus in culture; type: cell-based
[7] = tested on: A. baumannii pan-resistant clinical isolate, MRSN 17493; type: cell-based, Acinetobacter baumannii
[8] = tested on: A. baumannii strain ATCC 19606; type: cell-based, Acinetobacter baumannii

Compound | Lys20 (red blood cell (RBC)) [µM] | Minimum Inhibitory Concentration Pa [1] [µM] | Minimum Inhibitory Concentration CA-MRSA [2] [µM] | Minimum Inhibitory Concentration HA-MRSA [3] [µM] | Minimum Inhibitory Concentration MSSA [4] [µM] | Minimum Inhibitory Concentration E. coli [5] [µM] | Minimum Inhibitory Concentration E. faecalis [6] [µM] | MIC ([1]; Pseudomonas aeruginosa, PAO1, read-out: Minimum Inhibitory Concentration Pa) [µM] | MIC ([2]; Staphylococcus aureus, read-out: Minimum Inhibitory Concentration CA-MRSA) [µM] | MIC ([3]; Staphylococcus aureus, read-out: Minimum Inhibitory Concentration HA-MRSA) [µM] | MBEC [7] [µM] | MBEC [8] [µM] | MIC ([4]; Staphylococcus aureus, MSSA, read-out: Minimum Inhibitory Concentration MSSA) [µM] | MIC ([5]; Escherichia coli, read-out: Minimum Inhibitory Concentration E. coli) [µM] | MIC ([6]; Enterococcus faecalis, read-out: Minimum Inhibitory Concentration E. faecalis) [µM] | fold increase in activity compared to its 12-carbon analog [5] [fold] | fold increase in activity compared to BAC and CPC [1] [fold] | fold increase in activity compared to BAC and CPC [6] [fold]
CCCCCCCCCC[P+](c1ccccc1)(c1ccccc1)c1ccccc1 [TPP-10, decyltriphenylphosphonium] | 16 | 250 | 2 | 8 | 1 | 250 | 250 | – | – | – | – | – | – | – | – | – | – | –
CCCCCCCCCCCCCC[P+](c1ccccc1)(c1ccccc1)c1ccccc1 [TPP-14, triphenyl(tetradecyl)phosphonium] | 4 | 16 | 2 | 2 | 2 | 16 | 8 | – | – | – | – | – | – | – | – | – | – | –
CCCCCCCCCCC[n+]1ccc(CCCc2cc[n+](CCCCCCCCCCC)cc2)cc1 [2Pyr-11,11, reference compound] | 4 | – | – | – | – | – | – | 16 | 2 | 2 | 500 | 1000 | 1 | 2 | 8 | – | – | –
CCCCCCCC[P+](CC[P+](CCCCCCCC)(c1ccccc1)c1ccccc1)(CC[P+](CCCCCCCC)(c1ccccc1)c1ccccc1)c1ccccc1 [P2P2P-8,8,8, ((octyl(phenyl)phosphoniodiyl)bis(ethane-2,1-diyl))bis(octyldiphenylphosphonium)] | 16 | >250 | 1 | 2 | 2 | 250 | 250 | – | – | – | – | – | – | – | – | – | – | –
CCCCCCCCCCCC[P+](c1ccccc1)(c1ccccc1)c1ccccc1 [TPP-12, dodecyltriphenylphosphonium] | 8 | 63 | 1 | 2 | 0.5 | 250 | 63 | – | – | – | – | – | – | – | – | – | – | –
benzalkonium chloride [BAC, reference compound] | 16 | 250 | 4 | 8 | 4 | 63 | 250 | – | – | – | 2000 | 2000 | – | – | – | – | – | –
CCCCCCCCCCCCC[P+](c1ccccc1)(c1ccccc1)c1ccccc1 [TPP-13, triphenyl(tridecyl)phosphonium] | 4 | 32 | 1 | 2 | 1 | 4 | 16 | – | – | – | – | – | – | – | – | ~63 | – | –
CCCCCCCCCCC[P+](CC[P+](CCCCCCCCCCC)(c1ccccc1)c1ccccc1)(CC[P+](CCCCCCCCCCC)(c1ccccc1)c1ccccc1)c1ccccc1 [P2P2P-11,11,11, ((phenyl(undecyl)phosphoniodiyl)bis(ethane-2,1-diyl))bis(diphenyl(undecyl)phosphonium)] | 1 | >250 | 4 | 4 | 2 | 63 | 63 | – | – | – | – | – | – | – | – | – | – | –
CCCCCCCCCCCC[P+](CC[P+](CCCCCCCCCCCC)(c1ccccc1)c1ccccc1)(CC[P+](CCCCCCCCCCCC)(c1ccccc1)c1ccccc1)CC[P+](CCCCCCCCCCCC)(c1ccccc1)c1ccccc1 [4P-12,12,12,12, ((dodecylphosphoniotriyl)tris(ethane-2,1-diyl))tris(dodecyldiphenylphosphonium)] | 4 | >250 | 16 | 63 | 16 | 250 | 250 | – | – | – | – | – | – | – | – | – | – | –
CCCCCCCCCCCCC[P+](CC[P+](CCCCCCCCCCCCC)(c1ccccc1)c1ccccc1)(CC[P+](CCCCCCCCCCCCC)(c1ccccc1)c1ccccc1)c1ccccc1 [P2P2P-13,13,13, ((phenyl(tridecyl)phosphoniodiyl)bis(ethane-2,1-diyl))bis(diphenyl(tridecyl)phosphonium)] | 2 | >250 | 4 | 16 | 2 | 125 | 125 | – | – | – | – | – | – | – | – | – | – | –
CCCCCCCCCCCCCCCC[P+](c1ccccc1)(c1ccccc1)c1ccccc1 [TPP-16, hexadecyltriphenylphosphonium] | 4 | 16 | 2 | 4 | 2 | 16 | 4 | – | – | – | – | – | – | – | – | – | ~16 | ~63
CCCCCCCCCC[N+](C)(C)CCCCCCCCCC.[Cl-] [DDAC] | – | – | – | – | – | – | – | – | – | – | 500 | 1000 | – | – | – | – | – | –
CCCCCCCCCC[P+](CC[P+](CCCCCCCCCC)(c1ccccc1)c1ccccc1)(CC[P+](CCCCCCCCCC)(c1ccccc1)c1ccccc1)c1ccccc1 [P2P2P-10,10,10, ((decyl(phenyl)phosphoniodiyl)bis(ethane-2,1-diyl))bis(decyldiphenylphosphonium)] | 2 | >250 | 2 | 8 | 2 | 32 | 250 | – | – | – | – | – | – | – | – | – | – | –
CCCCCCCCCCC[P+](CC[P+](CCCCCCCCCCC)(c1ccccc1)c1ccccc1)(CC[P+](CCCCCCCCCCC)(c1ccccc1)c1ccccc1)CC[P+](CCCCCCCCCCC)(c1ccccc1)c1ccccc1 [4P-11,11,11,11, ((undecylphosphoniotriyl)tris(ethane-2,1-diyl))tris(diphenyl(undecyl)phosphonium)] | 4 | >250 | 32 | 125 | 16 | 125 | 125 | – | – | – | – | – | – | – | – | – | – | –
CCCCCCCC[P+](c1ccccc1)(c1ccccc1)c1ccccc1 [TPP-8, octyltriphenylphosphonium] | 63 | >250 | 4 | 125 | 4 | >250 | >250 | – | – | – | – | – | – | – | – | – | – | –
CCCCCCCCCC[P+](CC[P+](CCCCCCCCCC)(c1ccccc1)c1ccccc1)(CC[P+](CCCCCCCCCC)(c1ccccc1)c1ccccc1)CC[P+](CCCCCCCCCC)(c1ccccc1)c1ccccc1 [4P-10,10,10,10, ((decylphosphoniotriyl)tris(ethane-2,1-diyl))tris(decyldiphenylphosphonium)] | 8 | >250 | 32 | 32 | 16 | 250 | 250 | – | – | – | – | – | – | – | – | – | – | –
CCCCCCCCCCCC[P+](CC[P+](CCCCCCCCCCCC)(c1ccccc1)c1ccccc1)(CC[P+](CCCCCCCCCCCC)(c1ccccc1)c1ccccc1)c1ccccc1 [P2P2P-12,12,12, ((dodecyl(phenyl)phosphoniodiyl)bis(ethane-2,1-diyl))bis(dodecyldiphenylphosphonium)] | 1 | >250 | 4 | 8 | 2 | 125 | 125 | – | – | – | – | – | – | – | – | – | – | –
CCCCCCCCCCC[P+](c1ccccc1)(c1ccccc1)c1ccccc1 [TPP-11, triphenyl(undecyl)phosphonium] | 16 | 250 | 1 | 4 | 1 | 125 | 125 | – | – | – | – | – | – | – | – | – | – | –
CCCCCCCCCCCCCCCC[n+]1ccccc1 [CPC, cetylpyridinium chloride, reference compound] | 4 | – | – | – | – | – | – | – | – | – | – | – | – | – | – | – | – | –
